Test results reported in ChEMBL document CHEMBL1145323, “Synthesis and biological activity of amide derivatives of nimbolide” (Bioorg Med Chem Lett, 2006).

These molecules were tested on HT-29 (assay: Antiproliferative activity against human HT29 cell line). Conditions: Homo sapiens, HT-29; read-out: IC50; call rule not given here.
Type: functional, cell-based

Question: With `COC(=O)C[C@H]1[C@]2(C)C3=C(C)[C@H](c4ccoc4)C[C@H]3O[C@@H]2[C@H](O)[C@@H]2[C@]1(C)C(=O)C=C[C@@]2(C)C(=O)NCC(C)C` as the molecule, how does the IC50 read?
Answer: 0.05 µM

Question: With `COC(=O)C[C@H]1[C@]2(C)C3=C(C)[C@H](c4ccoc4)C[C@H]3O[C@@H]2[C@H](O)[C@@H]2[C@]1(C)C(=O)C=C[C@@]2(C)C(=O)NCc1ccccc1` as the molecule, how does the IC50 read?
Answer: 43.2 µM

Question: `COC(=O)C[C@H]1[C@]2(C)C3=C(C)[C@H](c4ccoc4)C[C@H]3O[C@@H]2[C@@H]2OC(=O)[C@]3(C)C=CC(=O)[C@@]1(C)[C@@H]23` [NIMBOLIDE] was tested. Which IC50 did it give?
Answer: 6.94 µM

Question: `COC(=O)C[C@H]1[C@]2(C)C3=C(C)[C@H](c4ccoc4)C[C@H]3O[C@@H]2[C@H](O)[C@@H]2[C@]1(C)C(=O)C=C[C@@]2(C)C(=O)NC(C(=O)OC)c1ccccc1` (stereo not given in full) was tested. Which IC50 did it give?
Answer: 8.62 µM

Question: How did the IC50 turn out when `COC(=O)C[C@H]1[C@]2(C)C3=C(C)[C@H](c4ccoc4)C[C@H]3O[C@@H]2[C@H](O)[C@@H]2[C@]1(C)C(=O)C=C[C@@]2(C)C(=O)NCc1ccc(C(F)(F)F)cc1` was run?
Answer: 17.5 µM

The molecules below were run on SW-60 (assay: Antiproliferative activity against […]). Conditions: Homo sapiens, SW-60; read-out: IC50.
Type: functional, cell-based

Question: Which IC50 does the source give for `COC(=O)C[C@H]1[C@]2(C)C3=C(C)[C@H](c4ccoc4)C[C@H]3O[C@@H]2[C@H](O)[C@@H]2[C@]1(C)C(=O)C=C[C@@]2(C)C(=O)NCC(C)C` here?
Answer: 0.08 µM

Question: `COC(=O)C[C@H]1[C@]2(C)C3=C(C)[C@H](c4ccoc4)C[C@H]3O[C@@H]2[C@@H]2OC(=O)[C@]3(C)C=CC(=O)[C@@]1(C)[C@@H]23` [NIMBOLIDE] was tested. Which IC50 did it give?
Answer: 8.25 µM

Question: How did the IC50 turn out when `COC(=O)C[C@H]1[C@]2(C)C3=C(C)[C@H](c4ccoc4)C[C@H]3O[C@@H]2[C@H](O)[C@@H]2[C@]1(C)C(=O)C=C[C@@]2(C)C(=O)NCc1ccc(C(F)(F)F)cc1` was run?
Answer: 26.4 µM

Same assay, conditions: sw-60

Question: With `COC(=O)C[C@H]1[C@]2(C)C3=C(C)[C@H](c4ccoc4)C[C@H]3O[C@@H]2[C@H](O)[C@@H]2[C@]1(C)C(=O)C=C[C@@]2(C)C(=O)NCc1ccccc1` as the molecule, how does the IC50 read?
Answer: Not Active

Question: `COC(=O)C[C@H]1[C@]2(C)C3=C(C)[C@H](c4ccoc4)C[C@H]3O[C@@H]2[C@H](O)[C@@H]2[C@]1(C)C(=O)C=C[C@@]2(C)C(=O)NC(C(=O)OC)c1ccccc1` (stereo not given in full) was tested. Which IC50 did it give?
Answer: Not Active

The molecules below were run on HOP-62 (assay: Antiproliferative activity against human HOP62 cell line). Conditions: Homo sapiens, HOP-62; read-out: IC50.
Type: functional, cell-based

Question: Which IC50 does the source give for `COC(=O)C[C@H]1[C@]2(C)C3=C(C)[C@H](c4ccoc4)C[C@H]3O[C@@H]2[C@H](O)[C@@H]2[C@]1(C)C(=O)C=C[C@@]2(C)C(=O)NCC(C)C` here?
Answer: 4.83 µM

Question: For `COC(=O)C[C@H]1[C@]2(C)C3=C(C)[C@H](c4ccoc4)C[C@H]3O[C@@H]2[C@H](O)[C@@H]2[C@]1(C)C(=O)C=C[C@@]2(C)C(=O)NCc1ccccc1`, which IC50 is on record?
Answer: 26.3 µM

Question: Which IC50 does the source give for `COC(=O)C[C@H]1[C@]2(C)C3=C(C)[C@H](c4ccoc4)C[C@H]3O[C@@H]2[C@@H]2OC(=O)[C@]3(C)C=CC(=O)[C@@]1(C)[C@@H]23` [NIMBOLIDE] here?
Answer: 10.4 µM

Question: For `COC(=O)C[C@H]1[C@]2(C)C3=C(C)[C@H](c4ccoc4)C[C@H]3O[C@@H]2[C@H](O)[C@@H]2[C@]1(C)C(=O)C=C[C@@]2(C)C(=O)NC(C(=O)OC)c1ccccc1` (stereo not given in full), which IC50 is on record?
Answer: 13.5 µM

Question: How did the IC50 turn out when `COC(=O)C[C@H]1[C@]2(C)C3=C(C)[C@H](c4ccoc4)C[C@H]3O[C@@H]2[C@H](O)[C@@H]2[C@]1(C)C(=O)C=C[C@@]2(C)C(=O)NCc1ccc(C(F)(F)F)cc1` was run?
Answer: 14.1 µM

What follows are molecules tested on A549 (assay: Antiproliferative activity against human A549 cell line). Conditions: Homo sapiens, A549; read-out: IC50.
Type: functional, cell-based

Question: How did the IC50 turn out when `COC(=O)C[C@H]1[C@]2(C)C3=C(C)[C@H](c4ccoc4)C[C@H]3O[C@@H]2[C@@H]2OC(=O)[C@]3(C)C=CC(=O)[C@@]1(C)[C@@H]23` [NIMBOLIDE] was run?
Answer: 15.6 µM

Question: For `COC(=O)C[C@H]1[C@]2(C)C3=C(C)[C@H](c4ccoc4)C[C@H]3O[C@@H]2[C@H](O)[C@@H]2[C@]1(C)C(=O)C=C[C@@]2(C)C(=O)NCc1ccc(C(F)(F)F)cc1`, which IC50 is on record?
Answer: 37.3 µM

Same assay, conditions: a549

Question: With `COC(=O)C[C@H]1[C@]2(C)C3=C(C)[C@H](c4ccoc4)C[C@H]3O[C@@H]2[C@H](O)[C@@H]2[C@]1(C)C(=O)C=C[C@@]2(C)C(=O)NCC(C)C` as the molecule, how does the IC50 read?
Answer: Not Active

Question: Which IC50 does the source give for `COC(=O)C[C@H]1[C@]2(C)C3=C(C)[C@H](c4ccoc4)C[C@H]3O[C@@H]2[C@H](O)[C@@H]2[C@]1(C)C(=O)C=C[C@@]2(C)C(=O)NCc1ccccc1` here?
Answer: Not Active

Question: Which IC50 does the source give for `COC(=O)C[C@H]1[C@]2(C)C3=C(C)[C@H](c4ccoc4)C[C@H]3O[C@@H]2[C@H](O)[C@@H]2[C@]1(C)C(=O)C=C[C@@]2(C)C(=O)NC(C(=O)OC)c1ccccc1` (stereo not given in full) here?
Answer: Not Active

These molecules were tested on PC-3 (assay: Antiproliferative activity against human PC3 cell line). Conditions: Homo sapiens, PC-3; read-out: IC50.
Type: functional, cell-based

Question: How did the IC50 turn out when `COC(=O)C[C@H]1[C@]2(C)C3=C(C)[C@H](c4ccoc4)C[C@H]3O[C@@H]2[C@H](O)[C@@H]2[C@]1(C)C(=O)C=C[C@@]2(C)C(=O)NCC(C)C` was run?
Answer: 7.43 µM

Question: `COC(=O)C[C@H]1[C@]2(C)C3=C(C)[C@H](c4ccoc4)C[C@H]3O[C@@H]2[C@@H]2OC(=O)[C@]3(C)C=CC(=O)[C@@]1(C)[C@@H]23` [NIMBOLIDE] was tested. Which IC50 did it give?
Answer: 4.59 µM

Question: Which IC50 does the source give for `COC(=O)C[C@H]1[C@]2(C)C3=C(C)[C@H](c4ccoc4)C[C@H]3O[C@@H]2[C@H](O)[C@@H]2[C@]1(C)C(=O)C=C[C@@]2(C)C(=O)NC(C(=O)OC)c1ccccc1` (stereo not given in full) here?
Answer: 8.11 µM

Question: `COC(=O)C[C@H]1[C@]2(C)C3=C(C)[C@H](c4ccoc4)C[C@H]3O[C@@H]2[C@H](O)[C@@H]2[C@]1(C)C(=O)C=C[C@@]2(C)C(=O)NCc1ccc(C(F)(F)F)cc1` was tested. Which IC50 did it give?
Answer: 32.3 µM

Same assay, conditions: pc-3

Question: With `COC(=O)C[C@H]1[C@]2(C)C3=C(C)[C@H](c4ccoc4)C[C@H]3O[C@@H]2[C@H](O)[C@@H]2[C@]1(C)C(=O)C=C[C@@]2(C)C(=O)NCc1ccccc1` as the molecule, how does the IC50 read?
Answer: Not Active

These molecules were tested on OVCAR-5 (assay: Antiproliferative activity against human OVCAR5 cell line). Conditions: Homo sapiens, OVCAR-5; read-out: IC50.
Type: functional, cell-based

Question: `COC(=O)C[C@H]1[C@]2(C)C3=C(C)[C@H](c4ccoc4)C[C@H]3O[C@@H]2[C@H](O)[C@@H]2[C@]1(C)C(=O)C=C[C@@]2(C)C(=O)NCC(C)C` was tested. Which IC50 did it give?
Answer: 1.53 µM

Question: With `COC(=O)C[C@H]1[C@]2(C)C3=C(C)[C@H](c4ccoc4)C[C@H]3O[C@@H]2[C@H](O)[C@@H]2[C@]1(C)C(=O)C=C[C@@]2(C)C(=O)NCc1ccccc1` as the molecule, how does the IC50 read?
Answer: 82.4 µM

Question: For `COC(=O)C[C@H]1[C@]2(C)C3=C(C)[C@H](c4ccoc4)C[C@H]3O[C@@H]2[C@@H]2OC(=O)[C@]3(C)C=CC(=O)[C@@]1(C)[C@@H]23` [NIMBOLIDE], which IC50 is on record?
Answer: 4.17 µM

Same assay, conditions: ovcar-5

Question: `COC(=O)C[C@H]1[C@]2(C)C3=C(C)[C@H](c4ccoc4)C[C@H]3O[C@@H]2[C@H](O)[C@@H]2[C@]1(C)C(=O)C=C[C@@]2(C)C(=O)NC(C(=O)OC)c1ccccc1` (stereo not given in full) was tested. Which IC50 did it give?
Answer: Not Active

Question: With `COC(=O)C[C@H]1[C@]2(C)C3=C(C)[C@H](c4ccoc4)C[C@H]3O[C@@H]2[C@H](O)[C@@H]2[C@]1(C)C(=O)C=C[C@@]2(C)C(=O)NCc1ccc(C(F)(F)F)cc1` as the molecule, how does the IC50 read?
Answer: Not Active
